This note sets out measurements from ChEMBL document CHEMBL1126972, “Synthesis of 2-imidazolidinylidenepropanedinitrile derivatives as stimulators of gastrointestinal motility” (J Med Chem, 1993).

Activity calls are given as the source filed them. The calls are words filed in the database; no cut-off is given here.

Chain of Acetylcholinesterase (Homo sapiens) (P22303 whole entry): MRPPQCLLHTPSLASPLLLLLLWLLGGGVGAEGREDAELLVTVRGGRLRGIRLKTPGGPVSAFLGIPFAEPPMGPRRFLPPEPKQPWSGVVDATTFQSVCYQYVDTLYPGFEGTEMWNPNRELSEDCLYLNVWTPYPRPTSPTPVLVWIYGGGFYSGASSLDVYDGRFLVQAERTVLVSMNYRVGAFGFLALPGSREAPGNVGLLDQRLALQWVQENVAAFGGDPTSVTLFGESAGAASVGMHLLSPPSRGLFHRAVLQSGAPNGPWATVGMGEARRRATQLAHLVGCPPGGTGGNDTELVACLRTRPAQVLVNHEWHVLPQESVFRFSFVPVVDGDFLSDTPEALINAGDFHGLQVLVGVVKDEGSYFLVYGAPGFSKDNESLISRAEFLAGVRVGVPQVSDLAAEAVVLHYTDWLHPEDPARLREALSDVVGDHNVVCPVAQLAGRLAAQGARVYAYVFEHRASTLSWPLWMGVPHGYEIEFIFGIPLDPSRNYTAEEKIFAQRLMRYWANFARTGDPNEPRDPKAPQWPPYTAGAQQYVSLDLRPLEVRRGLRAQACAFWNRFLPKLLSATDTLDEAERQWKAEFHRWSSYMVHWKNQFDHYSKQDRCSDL

The species named for one test is Cavia porcellus. As to the kind of experiment: In vitro gastrointestinal motility enhancing activity was determined by potentiating action on electrically evoked contraction of the isolated guinea pig ileum; no effect. In kind it is functional.
Conditions: not given
As to `CN(C)Cc1ccc(CNCCN2CCN/C2=C\[N+](=O)[O-])o1`, the EC30 (usually the point of the concentration-response curve where the effect stands at 30%) is “inactive”. Consider `N#CC(C#N)=C1Nc2ccccc2N1CCNCc1ccc(CN2CCCCC2)o1`, for which the EC30 entry is “inactive”. Regarding `CNC(NCCNCc1ccc(COC)o1)=C(C#N)C#N`, the EC30 result was “inactive”. On to `CC1CCCC(C)N1Cc1ccc(CNCCN2CCNC2=C(C#N)C#N)o1` (stereo not given), for which the EC30 entry is “inactive”.

The species entered for a further test is Cavia porcellus. In words: In vitro gastrointestinal motility enhancing activity was determined by potentiating action on electrically evoked contraction of the isolated guinea pig ileum; the maximum contraction was not achieved to 30%. Type of test: functional.
Conditions: not given
Take `CN(C)C(=O)Oc1cccc([N+](C)(C)C)c1`: the EC30 entry was “inactive”.

A further test is filed under the species Cavia porcellus. As to the kind of experiment: In vitro gastrointestinal motility enhancing activity was determined by potentiating action on electrically evoked contraction of the isolated guinea pig ileum;No effect. In kind it is functional.
Conditions: not given
Take `COc1cc(N)c(Cl)cc1C(=O)NCCNCc1ccc(CN(C)C)o1`: the EC30 result was “No effect”.

A further test addresses Acetylcholinesterase (Homo sapiens) (UniProt P22303). The conditions noted are these: Cavia porcellus; Ileum.
`CC1CCCN(Cc2ccc(CNCCN3CCNC3=C(C#N)C#N)o2)C1` (stereo not given) gave an EC30 of 410 nM.

For the compound `C/N=c1\c(O)c(O)\c1=N/CCNCc1ccc(CN2CCCCC2)o1`, the EC30 amounted to 7200 nM. On to `CNC(=C[N+](=O)[O-])NCCSCc1ccc(CN(C)C)o1`, for which the 30% effect level (EC30) was put at 1800 nM. As for `N#CC(C#N)=C1NCCN1CCNCc1ccc(CN2CCSCC2)o1`, it took 2900 nM to reach the 30% level (EC30). Same read-out and setting: the same measure for `CN1CCN(Cc2ccc(CNCCN3CCNC3=C(C#N)C#N)o2)CC1`: 1700 nM. On the same count and under the same terms, for `COC1CCN(Cc2ccc(CNCCN3CCNC3=C(C#N)C#N)o2)CC1` the value was 11000 nM; for `N#CC(C#N)=C1NCCN1CCNCc1ccc(CN2CCCC2)o1`, 310 nM; for `N#CC(C#N)=C1NCCN1CCNCc1ccc(CN2CC=CCC2)o1`, 81 nM. The compound `N#CC(C#N)=C1NCCN1CCNCc1ccc(CN2CCCCCC2)o1` returned an EC30 of 320 nM. The same measure, in the same setting: the same measure for `CNC(NCCNCc1ccc(CN2CCCCC2)o1)=C(C#N)C#N`: 4100 nM; for `CNC(NCCNCc1ccc(CN2CCCC2)o1)=C(C#N)C#N`: 2000 nM.

Take `CNC(NCCNCc1ccc(CN(C)C)o1)=C(C#N)C#N`: it took 2100 nM to reach the 30% level (EC30). `N#CC(C#N)=C1NCCN1CCNCc1ccc(CN2CCCC(O)C2)o1` (stereo not given) registered an EC30 of 460 nM. On the same count and under the same terms, for `COC1CCCN(Cc2ccc(CNCCN3CCNC3=C(C#N)C#N)o2)C1` (stereo not given) the value was 1400 nM; for `N#CC(C#N)=C1NCCN1CCNCc1ccc(CN2CCCCC2)o1`, 16 nM; for `CCN(C)Cc1ccc(CNCCN2CCNC2=C(C#N)C#N)o1`, 540 nM. The same measure, in the same setting: the same measure for `CC1CCCCN1Cc1ccc(CNCCN2CCNC2=C(C#N)C#N)o1` (stereo not given): 910 nM; for `CCN(CC)CCNC(=O)c1cc(Cl)c(N)cc1OC`: 430 nM; for `CN(C)Cc1ccc(CNCCN2CCNC2=C(C#N)C#N)o1`: 370 nM. The compound `N#CC(C#N)=C1NCCN1CCNCc1ccc(CN2CCOCC2)o1` yielded an EC30 of 13000 nM. On the same count and under the same terms, for `CCN(CC)Cc1ccc(CNCCN2CCNC2=C(C#N)C#N)o1` the value was 1000 nM; for `CNC(NCCNCc1ccc(CN(C(C)C)C(C)C)o1)=C(C#N)C#N`, 8500 nM. Compound `CC1CCN(Cc2ccc(CNCCN3CCNC3=C(C#N)C#N)o2)CC1` came in with an EC30 of 260 nM. On to `N#CC(C#N)=C1NCCN1CCNCc1ccc(CN2CCC(O)CC2)o1`, for which the 30% effect level (EC30) was put at 430 nM.
